Measured values reported in patent US8933114B2, “Polymorphic forms of asenapine maleate and processes for their preparation” (Chemo Iberica, S.A., priority 2010, dated 2015).
Where a name gives a salt, the structure may show the parent alone. One block for each molecule: values may come before it.

Tests used:
[1] = stability of the polymorphic forms at room temperature; format: physicochemical; settings: solid form
[2] = micronization step starting from the monoclinic form; cited from earlier work
[3] = solid-state stability of the freeze-dried amorphous form upon standing; format: physicochemical; settings: amorphous form prepared by freeze-drying
Source text: WO 2008/040816 discloses an amorphous form of asenapine maleate, prepared via spray-drying or freeze-drying processes.

stability at room temperature [1]: stable at room temperature
Structure (SMILES): CN1C[C@H]2c3ccccc3Oc3ccc(Cl)cc3[C@@H]2C1 [Form G, asenapine maleate]

Structure (SMILES): CN1C[C@H]2c3ccccc3Oc3ccc(Cl)cc3[C@@H]2C1 [Form H, asenapine maleate]
polymorphic form obtained after micronization [2]: an unpredictable mixture of Form H and Form L is obtained

Structure (SMILES): CN1C[C@H]2c3ccccc3Oc3ccc(Cl)cc3[C@@H]2C1 [amorphous form, asenapine maleate]
stability of solid form upon standing [3]: not stable, and spontaneously converts into Form H upon standing
